One may read the pKi as the Ki on a negative log10 scale, so that one unit is a factor of ten. Low values mean a large Ki, high ones a small Ki.

pKi: −log10 of the molar value.

The target of the experiment is Somatostatin receptor type 2 (Rattus norvegicus) (UniProt P30680). The experiment is described as follows: Binding affinity for SSTR2 receptors of rat cortex membranes was determined by using [125I][Tyr3]-octreotide radioligand.
Sequence of Somatostatin receptor type 2 (Rattus norvegicus) (P30680 whole entry, looked up): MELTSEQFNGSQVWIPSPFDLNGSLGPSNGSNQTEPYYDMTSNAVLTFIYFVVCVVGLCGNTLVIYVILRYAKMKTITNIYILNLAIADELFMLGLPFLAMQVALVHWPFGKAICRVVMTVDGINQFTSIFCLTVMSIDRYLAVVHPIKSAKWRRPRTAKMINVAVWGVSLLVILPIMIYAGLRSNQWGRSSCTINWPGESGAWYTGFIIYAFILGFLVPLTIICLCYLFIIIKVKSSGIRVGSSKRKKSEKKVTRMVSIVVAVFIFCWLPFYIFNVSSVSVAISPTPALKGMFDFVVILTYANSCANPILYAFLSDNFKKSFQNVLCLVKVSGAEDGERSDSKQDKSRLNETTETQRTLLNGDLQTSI

In the case of `C[C@@H](O)[C@@H]1NC(=O)[C@H](CCCCN)NC(=O)[C@@H](Cc2c[nH]c3ccccc23)NC(=O)[C@H](Cc2ccccc2)NC(=O)[C@@H](NC(=O)[C@@H](Cc2ccccc2)NC(=O)CN2CCN(CC(=O)O)CCN(CC(=O)O)CCN(CC(=O)O)CC2)CSSC[C@@H](C(=O)N[C@H](CO)[C@@H](C)O)NC1=O`, the pKi is 8.49.

Source of the values: BindingDB's records for doi:10.1016/s0960-894x(98)00187-5 (Novartis Pharma, 1999).
